This is an account of results in publication PMC10344949, “Arachidonic acid reverses cholesterol and zinc inhibition of human voltage-gated proton channels” (The Journal of Biological Chemistry, 2023).

For the test, the target named is T1, hHv1 (human voltage-gated proton channel) (Homo sapiens, UniProt Q96D96).
T1 construct: gene HVCN1; no truncation stated
T1 sequence (Q96D96 1-273): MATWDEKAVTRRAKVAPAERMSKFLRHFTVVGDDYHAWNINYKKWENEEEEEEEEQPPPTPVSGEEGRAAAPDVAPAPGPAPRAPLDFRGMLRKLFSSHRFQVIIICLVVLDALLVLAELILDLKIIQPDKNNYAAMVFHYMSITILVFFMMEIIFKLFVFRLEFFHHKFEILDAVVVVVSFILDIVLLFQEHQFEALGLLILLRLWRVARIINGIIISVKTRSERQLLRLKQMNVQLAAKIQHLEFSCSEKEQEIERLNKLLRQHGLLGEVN
The test is described as follows: liposome proton flux assay (ACMA quenching), Hill fit. In kind it is biochemical. Conditions: read-out: half activation concentration (Kd).

As for `CCCCC/C=C\C/C=C\C/C=C\C/C=C\CCCC(=O)O` [arachidonic acid], the EC50 came to 7.2 µM.
